Assay results taken from the supplement of paper PMC11061612.

How the values were obtained:
Experiment in all cases: Bliss excess, mean over the matrix (fraction); higher = more synergy
[1] = tested on: BT-549 (Breast Carcinoma)
Method in brief: (§1)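 Cell lines grown in DMEM/F12 or RPMI with 10% FBS were plated in 1536-well plates and held 24 hours at 37°C, 5% CO2 before 72 hours of exposure to two-drug dose matrices, with DMSO typically at 0.2%. CellTiter-Glo 2.0 luminescence gave viability, which was converted to inhibition. Vehicle wells were set to 0 and blank wells to 1. Combination Emax is the second-highest inhibition in the matrix, and Bliss excess is the observed combination effect minus the expected EA + EB − EA·EB, where EA and EB are the single-agent effects.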

[2] = tested on: EFM-19 (Breast Carcinoma)
Method in brief: as §1

[3] = tested on: Hs-766T (Pancreatic Carcinoma)
Method in brief: as §1

[4] = tested on: LU-65 (Non-Small Cell Lung Carcinoma)
Method in brief: as §1

[5] = tested on: MIA-PaCa-2 (Pancreatic Carcinoma)
Method in brief: as §1

[6] = tested on: MLMA (Other Blood Carcinomas)
Method in brief: as §1

[7] = tested on: NCI-H358 (Lung Adenocarcinoma)
Method in brief: as §1

[8] = tested on: PANC-04-03 (Pancreatic Carcinoma)
Method in brief: as §1

[9] = tested on: SW13 (Other Solid Carcinomas)
Method in brief: as §1

[10] = tested on: HGC-27 (Gastric Carcinoma)
Method in brief: as §1

[11] = tested on: NUGC-3 (Gastric Carcinoma)
Method in brief: as §1

PWR-1E (Non-Cancerous) = tested on: PWR-1E (Non-Cancerous)
Method in brief: as §1

SMILES | Bliss excess [1] | Bliss excess [2] | Bliss excess [3] | Bliss excess [4] | Bliss excess [5] | Bliss excess [6] | Bliss excess [7] | Bliss excess [8] | Bliss excess [9] | Bliss excess [10] | Bliss excess [11] | Bliss excess (PWR-1E (Non-Cancerous))
O=C(c1cc(Cc2n[nH]c(=O)c3ccccc23)ccc1F)N1CCN(C(=O)C2CC2)CC1 [Olaparib] + CC1(C)CCC(CN2CCN(c3ccc(C(=O)NS(=O)(=O)c4ccc(NCC5CCOCC5)c([N+](=O)[O-])c4)c(Oc4cnc5[nH]ccc5c4)c3)CC2)=C(c2ccc(Cl)cc2)C1 [Venetoclax] (first compound max 10 µM, 7x7, partner max 1 µM) | -0.0516 | 0.0138 | -0.0885 | -0.0323 | -0.0208 | -0.0299 | -0.054 | -0.0318 | -0.0309 |  |  | 
Cc1c2c(nn1C)CSCc1cc(n(C)n1)CSc1cc(c3ccccc3c1)OCCCc1c(C(=O)O)n(C)c3c-2c(Cl)ccc13 [AZD5991] + CC(=O)O[C@H]1C(=O)[C@@]2(C)[C@H]([C@H](OC(=O)c3ccccc3)[C@]3(O)C[C@H](OC(=O)[C@H](O)[C@@H](NC(=O)c4ccccc4)c4ccccc4)C(C)=C1C3(C)C)[C@]1(OC(C)=O)CO[C@@H]1C[C@@H]2O [Paclitaxel] (first compound max 1 µM, 7x7, partner max 3 µM) | 0.0124 | 0.0948 | -0.0539 | -0.0944 |  | -0.0803 | -0.0405 | 0.0111 | 0.0376 |  |  | 
O=C(c1cc(Cc2n[nH]c(=O)c3ccccc23)ccc1F)N1CCN(C(=O)C2CC2)CC1 [Olaparib] + COc1nnc2ccc(N3CCC(c4ccc(OCCN5CCN(C)C(=O)[C@H]5C)cc4)CC3)nn12 [AZD5153] (first compound max 10 µM, 7x7, partner max 1 µM) | -0.0697 | 0.0112 | -0.0857 | -0.0601 | -0.0233 | -0.0697 | -0.026 | -0.0698 | -0.0183 |  |  | 
C[C@@H](Oc1cc(-c2cnn(C3CCNCC3)c2)cnc1N)c1c(Cl)ccc(F)c1Cl [Crizotinib] + CC1=C(C(=CC=C1)Cl)NC(=O)C2=CN=C(S2)NC3=CC(=NC(=N3)C)N4CCN(CC4)CCO [Dasatinib] (first compound max 10 µM, 7x7, partner max 2 µM) | 0.0139 | 0.0874 | -0.074 | -0.0973 | 0.0119 | -0.0411 | -0.0813 | -0.0683 | -0.0173 |  |  | 
CS(=O)(=O)CCNCc1ccc(-c2ccc3ncnc(Nc4ccc(OCc5cccc(F)c5)c(Cl)c4)c3c2)o1 [Lapatinib] + NC1(c2ccc(-c3nc4ccn5c(=O)[nH]nc5c4cc3-c3ccccc3)cc2)CCC1 [MK-2206] (first compound max 10 µM, 7x7, partner max 10 µM) | -0.0275 | 0.0455 | -0.0629 | 0.0099 | 0.0112 | -0.093 | -0.0733 | 0.0116 | -0.0229 | -0.0156 | 0.0527 | 0.0309
C=CCn1c(=O)c2cnc(Nc3ccc(N4CCN(C)CC4)cc3)nc2n1-c1cccc(C(C)(C)O)n1 [AZD1775] + CCc1c2c(nc3ccc(O)cc13)-c1cc3c(c(=O)n1C2)COC(=O)[C@]3(O)CC [SN-38] (first compound max 1 µM, partner max 0.3 µM) | -0.057 | -0.0175 | 0.0017 | -0.0127 | 0.0699 | -0.0639 | -0.0162 | -0.0594 | 0.0119 |  |  | 
C[C@@H](Oc1cc(-c2cnn(C3CCNCC3)c2)cnc1N)c1c(Cl)ccc(F)c1Cl [Crizotinib] + Cn1cnc2c(F)c(Nc3ccc(Br)cc3Cl)c(C(=O)NOCCO)cc21 [Selumetinib] (first compound max 10 µM, 7x7, partner max 10 µM) | -0.063 | -0.0327 | -0.0074 | 0.0003 | 0.0058 | -0.116 | -0.106 | -0.0194 | -0.0324 |  |  | 
Cc1c2c(nn1C)CSCc1cc(n(C)n1)CSc1cc(c3ccccc3c1)OCCCc1c(C(=O)O)n(C)c3c-2c(Cl)ccc13 [AZD5991] + CS(=O)(=O)CCNCc1ccc(-c2ccc3ncnc(Nc4ccc(OCc5cccc(F)c5)c(Cl)c4)c3c2)o1 [Lapatinib] (first compound max 1 µM, 7x7, partner max 10 µM) | -0.042 | -0.0035 | -0.0526 | 0.0232 | -0.0094 | -0.0474 | -0.0019 | -0.0275 | 0.0568 |  |  | 
C[C@@H](Nc1cc(F)cc(F)c1)c1cc(C(=O)N(C)C)cc2c(=O)cc(N3CCOCC3)oc12 [AZD8186] + CC(=O)c1c(C)c2cnc(Nc3ccc(N4CCNCC4)cn3)nc2n(C2CCCC2)c1=O [Palbociclib] (first compound max 10 µM, 7x7, partner max 10 µM) | 0.0464 | -0.0026 | 0.006 | -0.0378 | 0.0485 | 0.0443 | -0.0167 | 0.0107 | 0.044 |  |  | 
Cc1nc(-c2cn3c(n2)-c2ccc(-c4cnn(C(C)(C)C(N)=O)c4)cc2OCC3)n(C(C)C)n1 [Taselisib] + O=C(Nc1ccc2[nH]nc(-c3ccncc3)c2c1)[C@@H]1CCN(CC(=O)N2CCN(c3ccc(-c4ncccn4)cc3)CC2)C1 [SCH772984] (first compound max 10 µM, 7x7, partner max 5 µM) | 0.047 | 0.0524 | -0.0386 | 0.214 | 0.149 | 0.0548 | 0.0402 | 0.0934 | 0.334 |  |  | 
C=CCn1c(=O)c2cnc(Nc3ccc(N4CCN(C)CC4)cc3)nc2n1-c1cccc(C(C)(C)O)n1 [AZD1775] + Nc1ccn([C@@H]2O[C@H](CO)[C@@H](O)C2(F)F)c(=O)n1 [Gemcitabine] (first compound max 1 µM, partner max 0.3 µM) | -0.0069 | 0.0061 | -0.0742 | -0.0081 | 0.0459 | -0.0797 | -0.0113 | -0.0346 | 0.0385 |  |  | 
C[C@@H](Nc1cc(F)cc(F)c1)c1cc(C(=O)N(C)C)cc2c(=O)cc(N3CCOCC3)oc12 [AZD8186] + C1CN(CCC1(C(=O)N[C@@H](CCO)C2=CC=C(C=C2)Cl)N)C3=NC=NC4=C3C=CN4 [AZD5363] (first compound max 10 µM, 7x7, partner max 10 µM) | -0.0011 | -0.0075 | -0.0078 | -0.0629 | 0.0056 | -0.0797 | -0.0597 | -0.0712 | 0.0092 |  |  | 
CC1(C)CCC(CN2CCN(c3ccc(C(=O)NS(=O)(=O)c4ccc(NCC5CCOCC5)c([N+](=O)[O-])c4)c(Oc4cnc5[nH]ccc5c4)c3)CC2)=C(c2ccc(Cl)cc2)C1 [Venetoclax] + CS(=O)(=O)CCNCc1ccc(-c2ccc3ncnc(Nc4ccc(OCc5cccc(F)c5)c(Cl)c4)c3c2)o1 [Lapatinib] (first compound max 1 µM, 7x7, partner max 10 µM) | -0.0573 | -0.002 | -0.0636 | 0.0159 | 0.0099 | -0.0329 | -0.0321 | -0.0396 | -0.0672 |  |  | 
CN(CCO)CC[C@H](CSc1ccccc1)Nc1ccc(S(=O)(=O)NC(=O)c2ccc(N3CCC([C@@H](O)c4ccccc4-c4ccc(Cl)cc4)CC3)cc2)cc1S(=O)(=O)C(F)(F)F [AZD4320] + CS(=O)(=O)CCNCc1ccc(-c2ccc3ncnc(Nc4ccc(OCc5cccc(F)c5)c(Cl)c4)c3c2)o1 [Lapatinib] (first compound max 1 µM, 7x7, partner max 10 µM) | -0.0188 | 0.013 | -0.0586 | -0.0043 | 0.0373 | 0.014 |  | -0.0143 | 0.0051 |  |  | 
C[C@@H]1COCCN1c1cc(C2([S@](C)(=N)=O)CC2)nc(-c2ccnc3[nH]ccc23)n1 [AZD6738] + Nc1ccn([C@@H]2O[C@H](CO)[C@@H](O)C2(F)F)c(=O)n1 [Gemcitabine] (first compound max 10 µM, 7x7, partner max 0.3 µM) | -0.0194 | 0.127 | -0.0278 | 0.0191 | 0.0999 | -0.0777 | 0.07 | -0.0244 | 0.0493 |  |  | 
CS(=O)(=O)CCNCc1ccc(-c2ccc3ncnc(Nc4ccc(OCc5cccc(F)c5)c(Cl)c4)c3c2)o1 [Lapatinib] + Cn1cnc2c(F)c(Nc3ccc(Br)cc3Cl)c(C(=O)NOCCO)cc21 [Selumetinib] (first compound max 10 µM, 7x7, partner max 10 µM) | -0.0473 | -0.0395 | -0.0652 | -0.0113 | 0.0484 | 0.0059 | -0.0044 | 0.0145 | 0.0429 |  |  | 
O=C(c1cc(Cc2n[nH]c(=O)c3ccccc23)ccc1F)N1CCN(C(=O)C2CC2)CC1 [Olaparib] + CN(CC[C@H](CSC1=CC=CC=C1)NC2=C(C=C(C=C2)S(=O)(=O)NC(=O)C3=CC=C(C=C3)N4CCC(CC4)[C@H](C5=CC=CC=C5C6=CC=C(C=C6)Cl)O)S(=O)(=O)C(F)(F)F)CCO [AZD4320] (first compound max 10 µM, 7x7, partner max 1 µM) | -0.0365 | -0.015 | -0.0976 | -0.0739 | 0.002 | -0.0619 | -0.0383 | -0.0555 | -0.0566 |  |  | 
C[C@@H]1COCCN1c1cc(C2([S@](C)(=N)=O)CC2)nc(-c2ccnc3[nH]ccc23)n1 [AZD6738] + C1CC(C1)(C(=O)[O-])C(=O)[O-].N.N.[Pt+2] [Carboplatin] (first compound max 10 µM, 7x7, partner max 10 µM) | -0.0453 | -0.0328 | -0.0536 | -0.0954 | -0.0272 | -0.102 | -0.091 | -0.0682 | -0.0051 |  |  | 
Cc1c2c(nn1C)CSCc1cc(n(C)n1)CSc1cc(c3ccccc3c1)OCCCc1c(C(=O)O)n(C)c3c-2c(Cl)ccc13 [AZD5991] + Nc1ccn([C@@H]2O[C@H](CO)[C@@H](O)C2(F)F)c(=O)n1 [Gemcitabine] (first compound max 1 µM, 7x7, partner max 0.3 µM) | 0.0278 | 0.0744 | -0.0234 | -0.0251 | 0.0137 | -0.0451 | -0.0276 | -0.0643 | 0.038 |  |  | 
O=C(c1cc(Cc2n[nH]c(=O)c3ccccc23)ccc1F)N1CCN(C(=O)C2CC2)CC1 [Olaparib] + Cc1c2c(nn1C)CSCc1cc(n(C)n1)CSc1cc(c3ccccc3c1)OCCCc1c(C(=O)O)n(C)c3c-2c(Cl)ccc13 [AZD5991] (first compound max 10 µM, 7x7, partner max 1 µM) | -0.0223 | 0.0102 | -0.0818 | -0.0452 | -0.0205 | -0.0744 | -0.0513 | -0.0554 | 0.0104 |  |  | 
